Data set [1] relates to Collagen type II induced arthritis (CIA) model. The data set can be described thus: Determination of suitable dose of predonisolone phosphate in RA (CIA) mice, intravenous. It counts as in vivo, DBA/1J mouse.
Data set [2] shares this test system. As to the kind of experiment: Treatment of RA (CIA) mice by oral administration. It counts as in vivo, DBA/1J mouse. As to conditions: oral 3 times a week, Day 28 to 39; free Pred 100 μg (up to Day 32), liposomes 10 μg per administration.
Data set [3] has the same test system. As to the kind of experiment: Treatment of RA (CIA) mice by intravenous administration. It counts as in vivo, DBA/1J mouse.
Data set [4] relates to MRC5 cells. The data set can be described thus: Cytotoxicity of doxorubicin HCl incorporated in liposome, WST-8, normal human cells. It counts as cell-based. As to conditions: read-out: 50% growth inhibition concentration (IC50), 72 hours. The method, then: (§1) KG-1a cells established from an acute myeloid leukemia patient were used as human leukemia cells. KG-1a cells were cultured in RPMI 1640 medium containing 10% fetal bovine serum (hereinafter FBS). MRC5 cells established from normal fibroblastic cells were used as normal human cells, and cultured in MEM medium containing 10% FBS. Cell suspensions were prepared from these cells at the concentration of 10^5 cells/ml and distributed to 96 well plates at 10^4 cells/well. After 24 hours, free doxorubicin HCl, which was not incorporated in liposome (hereinafter free Dox), doxorubicin HCl incorporated in liposome on which sugar was not bonded (hereinafter L-Dox) and doxorubicin HCl incorporated in liposome on which sialyl Lewis X tetrasaccharide was bonded (hereinafter L-Dox-SLX) were added to each well at appropriate concentrations. […] After removing the media containing the anticancer drug, replacing with 100 μl of RPMI 1640 or MEM containing 10% WST-8 and 10% FBS and incubating for 3 hours, the quantitation of cells were carried out by measuring absorbance at 485 nm (using the absorbance at 550 nm as a reference). Kiling activity (%)=100−(absorbance of the well of interest at 485 nm−absorbance of the same well at 550 nm)/(absorbance of the untreated well at 485 nm−absorbance of the untreated well at 550 nm)×100. […]
On the technique in general: Formazan colour is commonly taken as a measure of viable cells.

For data set [5] the following is noted: blood; tail vein; amount administered 1.4 mg/kg; mice with EAT cancer.
Description: Ehrlich ascites tumor (EAT) cells (about 2×10^7 cells) were implanted subcutaneously into the right femoral region in male ddY mice (7 weeks of age), and the 50 mice were used in this test after the tumor tissues grew to 50 to 100 cubic mm (after 6 to 8 days).
These mice with cancer were separated into two groups, 25 mice per each group, and the mice in each group were injected with a liposome solution encapsulating having glycolipid type sugar chain and doxorubicin or free doxorubicin solution at a dose of 0.2 ml in tail vein after the tumor implant. Then, at various time intervals, the doxorubicin concentration was measured by fluorescent method (470 nm) in blood and tumor tissue of 5 mice from each group.
In data set [6] the test system is KG-1a cells. The data set can be described thus: Cytotoxicity of doxorubicin HCl incorporated in liposome, WST-8, human leukemia cells. The following applies: read-out: 50% growth inhibition concentration (IC50); KG-1a human leukemia cells, 72 hours. It counts as cell-based. How it is done: as §1

The structures appear in SMILES notation. Bounds are passed on as bounds.

On to `C[C@]12C=CC(=O)C=C1CC[C@@H]1[C@@H]2[C@@H](O)C[C@@]2(C)[C@H]1CC[C@]2(O)C(=O)COP(=O)(O)O` [free Pred, predonisolone phosphate], for which the “Inflammatory Activity (IA) versus Control” value is “No significant difference” in data set [1] (iv 250 μg per injection, 500 μg per week); “no increase in IA was observed and the progression of inflammation was suppressed” in data set [1] (iv 500 μg per injection, 1000 μg per week). Moreover, in data set [1] (iv, more than 500 up to 1000 μg/week), the “Dose required to suppress the progression of inflammation” value was > 500 μg/week. The “Inflammatory Activity (IA), comparison between groups” value in data set [2] was “no significant difference in IA”; in data set [3] (iv twice a week, free Pred 100 μg, liposomes 10 μg per injection), “no clear difference from the Control group in IA”. Besides, in data set [3] (Day 37 and afterward, iv 100 μg per injection, twice a week), the “Inflammatory Activity (IA)” value is given as “about 50%”.
For the compound `COc1cccc2c1C(=O)c1c(O)c3c(c(O)c1C2=O)C[C@@](O)(C(=O)CO)C[C@@H]3O[C@H]1C[C@H](N)[C@H](O)[C@H](C)O1.Cl` [free Dox, doxorubicin HCl], the IC50 was determined as 8.4 µM in data set [4] and 0.18 µM in data set [6]. In addition, the “AUC0→∞” value in data set [5] was 130 ± 10 µg·h/mL.

The values are drawn from patent publication US20070160657A1, “Targeting and intestinal-absorption controlled liposome having sugar chain and therapeutic drug for cancer and diagnostic drug containing the liposome” (National Institute of Advanced Industrial Science, priority 2003, published 2007).
